From ChEMBL document CHEMBL3045631, “Anticandidiasis agents from a Tanzanian plant, Combretum zeyheri” (2013)
Converted amounts (≈) assume the structure as drawn.

What was measured:
Type in all cases: functional
Candida albicans [1] = assay: Antifungal activity against Candida albicans ATCC 90028 by two-fold serial microdilution method
Candida albicans [2] = assay: Antifungal activity against Candida albicans MTCC 1637 by two-fold serial microdilution method
Candida albicans [3] = assay: Antifungal activity against Candida albicans clinical isolate by two-fold serial microdilution method

MIC (Candida albicans [1]) [µg/mL] | MIC (Candida albicans [2]) [µg/mL] | MIC (Candida albicans [3]) [µg/mL] | SMILES
62.5 (≈ 124 µM) | 125 (≈ 248 µM) | 125 (≈ 248 µM) | CC1(C)CC[C@]2(C(=O)O)CC[C@]3(C)C(=CC[C@@H]4[C@@]5(C)C[C@@H](O)[C@H](O)[C@@](C)(CO)[C@@H]5[C@H](O)C[C@]43C)[C@@H]2C1 [TERMINOLIC ACID]
> 250 | > 250 | > 250 | CC1(C)CC[C@]2(C(=O)O)CC[C@]3(C)C(=CC[C@@H]4[C@@]5(C)C[C@@H](O)[C@H](O)C(C)(C)[C@@H]5[C@H](O)C[C@]43C)[C@@H]2C1 [6-beta-hydroxymaslinic acid]
0.78 (≈ 2.26 µM) | 0.39 (≈ 1.13 µM) | 0.39 (≈ 1.13 µM) | Clc1ccccc1C(c1ccccc1)(c1ccccc1)n1ccnc1 [CLOTRIMAZOLE]

SMILES | MIC (Candida albicans [1]) [µg/mL] | MIC (Candida albicans [2]) [µg/mL] | MIC (Candida albicans [3]) [µg/mL]
C[C@@H]1[C@H](O)[C@@H](C)/C=C/C=C/C=C/C=C/C=C/C=C/C=C/[C@H](O[C@@H]2O[C@H](C)[C@@H](O)[C@H](N)[C@@H]2O)C[C@@H]2O[C@](O)(C[C@@H](O)C[C@@H](O)[C@H](O)CC[C@@H](O)C[C@@H](O)CC(=O)O[C@H]1C)C[C@H](O)[C@H]2C(=O)O [AMPHOTERICIN B] | 3.13 (≈ 3.39 µM) | 3.13 (≈ 3.39 µM) | 6.25 (≈ 6.76 µM)
